Results reported in patent publication US6306828A, “Enantiomerically-enhanced nutritional energy substrates” (Baxter International, Inc., priority 1995, dated 2001).

How the values were obtained:
[1] = test system: isolated rat hepatocytes; test: Gross toxicity, as gauged by hepatocyte viability; format: cell-based, male Wistar rats; conditions: 20 mM
Method: (§1) Assay of Bioavailability and Gross Toxicity of Trilactyl Glycerate in Isolate Rat Hepatocytes
(§2) In the following experiment, male Wistar rats (200-250 g) fasted for 24 hours were used. Hepatocytes were isolated according to the method of Berry and Friend (1969) as modified by Groen et al. (1982).
(§3) The isolated hepatocytes were incubated as follows:
Hepatocytes (final concentration=10 mg dry cell/ml) were incubated in closed vials at 37° C. in a shaking water bath (60 strokes/min) for 30 minutes in 2.5 ml Krebs-bicarbonate buffer (NaCl: 120 mmol/L, KCl: 4.8 mmol/L, KH2 PO4 : 1.2 mmol/L, MgSO4 : 1.2 mmol/L, NaCO3 H: 24 mmol/L, Ca^2+ :2.4 mmol/L, pH 7.4) containing Bovine Serum Albumin (BSA)-oleate (2%-2 mmol/L), trilactyl glycerate or glucose octanoate (20 mM) The gas atmosphere was O2 /CO2 (19:1). After 30 minutes, 0.35 ml samples of the cell suspension were taken and quenched with perchloric acid (HCIO4, final concentration 5% (w/v)), then centrifuged at 13,500 g for 5 minutes. The supernatant was neutralized with KOH (2 M) and Mops (0.3 M) for subsequent determination of metabolites. 0.5 ml aliquots of the cell suspension were centrifuged at 13,500 g for 15 seconds. The pellet was frozen in liquid nitrogen and stored at -80° C. to subsequently measure pyruvate kinase activity.

[2] = test system: isolated rat hepatocytes; test: Bioavailability/metabolism in isolated rat hepatocytes (production of metabolic intermediates); format: cell-based, male Wistar rats; conditions: 20 mM; for Glucose production / Ketone Bodies production / Pyruvate-Lactate production: 37° C.
Method: as §1, §2, §3
[…] […] The supernatant was neutralized with KOH (2 M) and Mops (0.3 M) for subsequent determination of metabolites. 0.5 ml aliquots of the cell suspension were centrifuged at 13,500 g for 15 seconds. The pellet was frozen in liquid nitrogen and stored at -80° C. to subsequently measure pyruvate kinase activity.

[3] = test system: skeletal muscle; conditions: Hermanson et al. 1972; cited from earlier work
[4] = test system: cerebral metabolism / brain function during hypoglycemia; conditions: cited from earlier work
[5] = test system: macrophage cultures; conditions: high lactate concentration; Jensen et al. 1986; cited from earlier work

CC(O)C(=O)OCC(COC(=O)C(C)O)OC(=O)C(C)O (single isomer, unassigned) [trilactyl glycerate]
gross toxicity, as gauged by hepatocyte viability [1]: No evidence of gross toxicity | Glucose production ([2]; 0 Mins.): 0.006 | Ketone Bodies production ([2]; 0 Mins.): 0.010 | Pyruvate-Lactate production ([2]; 0 Mins.): 0.012 | bioavailability and metabolic conversion [2]: demonstrate the bioavailability of trilactyl glycerate and its interconversion to glucose | Glucose production ([2]; 15 Mins.): 0.027 | Ketone Bodies production ([2]; 15 Mins.): 0.12 | Pyruvate-Lactate production ([2]; 15 Mins.): 0.38 | Glucose production ([2]; 30 Mins.): 0.062 | Ketone Bodies production ([2]; 30 Mins.): 0.15 | Pyruvate-Lactate production ([2]; 30 Mins.): 0.42 | Glucose production ([2]; 45 Mins.): 0.178 | Ketone Bodies production ([2]; 45 Mins.): 0.11 | Pyruvate-Lactate production ([2]; 45 Mins.): 0.45 | Glucose production ([2]; 60 Mins.): 0.189 | Ketone Bodies production ([2]; 60 Mins.): 0.13 | Pyruvate-Lactate production ([2]; 60 Mins.): 0.43

CCCCCCCC(=O)OC1O[C@H](CO)[C@@H](O)[C@H](O)[C@H]1O (stereo partly drawn) [glucose octanoate, α,β-D-Glucopyranosyl octanoate]
bioavailability and metabolic conversion [2]: demonstrate the bioavailability of the substrate and its utility as a keptone precursor

CC(O)C(=O)O (stereo not shown) [lactate]
metabolism of blood lactate by skeletal muscle [3]: metabolized by skeletal muscle in significant quantities | support of cerebral glucose metabolism and cognitive functions during hypoglycemia ([4]; Amiel 1994): able to support cerebral glucose metabolism and maintain cognitive functions during hypoglycemia | protection of brain function during hypoglycemia ([4]; Maran et al. 1994): protective of brain function during hypoglycemia | secretion of angiogenesis factors [5]: encouraged macrophage cultures to secrete angiogenesis factors
